The text below walks through data of publication PMC12386934, “Characteristics and Potential of KSL, KSL-W, and Dadapin-1 Antimicrobial Peptides for Preventing Infections of Orthopedic Prosthetic Devices: Identifying the Most Robust Candidate” (International Journal of Molecular Sciences, 2025).

Where a SMILES comes first, the peptide text is derived from it.

For data set [1] the following is noted: cited from earlier work. The source says:
In 2021, aiming at identifying AMPs for a possible application in the prevention or treatment of prosthetic orthopedic infections, our group conducted an extensive systematic review on known short-chain AMPs, primarily based on the Database of Antimicrobial Activity and Structure of Peptides (DBAASP). The choice of considering short-chain peptides was dictated by the potentially lower allergenic risk offered by small peptides. The query included all monomeric AMPs with a length spanning from 7 to 13 amino acids. The research results provided a list of 415 entries, which were then extend ...

The test system of data set [2] is S. epidermidis cra4029 (SE 02). The data set is classed as cell-based. The source says:
(§1) The experimental scheme reported in Figure 6 helped to simplify and optimize the in vitro testing of the antibacterial activity of the different AMPs. The initial transparent microtiter plate for the determination of the minimum inhibitory concentration (MIC) by optical density (OD) measurement was conveniently used as a starting point not only for the alterative determination of the MIC by luminescence but also for the minimum bactericidal concentration (MBC) and for the minimum biofilm inhibitory concentration (MBIC), as explained below. For every test peptide, at least three independent experiments were performed on each bacterial strain per test condition (100% MHB and 20% MHB). The sole exception to this rule was when MIC values were on rare occasions found to be greater than 500 µg/mL. Under these circumstances, two consecutive experiments were performed to confirm the results. In this case, the antibacterial activity was considered insignificant and the third experiment was generally considered unnecessary.
(§2) The antibacterial properties of the test AMPs were assayed under two distinct conditions of bacterial culture: (i) with bacteria cultured in undiluted Mueller–Hinton II Broth (MHB II) and (ii) with bacteria cultured in diluted MHB II as earlier described in Campoccia et al.. Briefly, a few colonies of each bacterial strain, taken from overnight cultures on Mueller–Hinton Agar plates (MHA, PO50007A, ThermoScientific, Thermo Fisher Scientific, Segrate, Italy), were resuspended in Mueller–Hinton II Broth (MHB II, 24107, Liofilchem, Roseto degli Abruzzi, Italy), either undiluted or at a 20% dilution in deionized water. The concentration of bacteria was adjusted to approximately 10^8 CFU/mL, as estimated by optical density reading at 625 nm, using a Hewlett Packard G1103A spectrophotometer (Waldbronn, Germany). The bacterial suspension was further diluted 1:100 in 100% or 20% MHB II.
(§3) Serial 1:2 dilutions of all the test peptides were prepared in sterile deionized water starting from a stock solution of 1 mg/mL. Microtiter plates (96-Well CytoOne® Plate, CC7672-7596, Starlab S.r.l., Milano, Italy) were prepared by adding a volume of 100 µL of inoculum to 100 µL of treatment. Each AMP dilution was assayed in triplicate; each microplate included triplicate wells for the blank (100 µL of sterile distilled water and 100 µL of sterile MHB II), and 3 to 6 wells for reference control of 100% growth (100 µL of sterile deionized water and 100 µL of MHB II inoculated with the bacterium). Positive controls were performed in triplicate wells with 100 µL of a 10 mg/mL gentamicin solution (G1272, Sigma Aldrich, Milan, Italy) and with 100 µL of a solution containing 10,000 units/mL of penicillin and 10,000 µg/mL of streptomycin (penicillin–streptomycin, 15140-122, Life Technologies, Monza, Italy).
(§4) After a 1-day incubation at 37 °C, the MIC was determined by two distinct methods: (1) optical density measurement and (2) bioluminescence reading. In the first case, the optical density of the microtiter plates was read directly at a wavelength of 600 nm and the MIC was estimated from the curves obtained by plotting the OD measurements. For the bioluminescence reading, after gentle resuspension, 100 µL of each treated culture was transferred to a new 96-well non-treated plate (236105/237105, Life Technologies, Monza, Italy) and the metabolic activity was determined by the kit Bac-Titer Glo Microbial Cell Viability Assay (G8231, Promega Italia S.r.l, Milan, Italy). Optical density and bioluminescence were read by a Modulus II multifunction plate reader (Turner BioSystems, Sunnyvale, CA, USA) or, alternatively, by an Infinite M Plex (Tecan Group Ltd., Männedorf, Switzerland). As earlier described in [24], in the case of luminescence, the MIC was identified from the curves of growth inhibition as the first concentration leading to a 1-log reduction in bacterial growth (i.e., 90% growth inhibition). […]

Data set [3] relates to E. faecalis cra4033 (EF 02). The data set is classed as cell-based.
Text: as §1, §2, §3, §4

The subject of data set [4] is S. epidermidis cra4029 (SE 02). In kind it is cell-based.
Text: as §1, §2, §3
(§5) The wells of the microplate, initially used for the determination of the MIC, were rinsed twice with 220 µL of phosphate-buffered solution (PBS) to remove loosely attached and planktonic bacteria. A total of 100 µL of fresh PBS and 100 µL of Bac-Titer Glo solution (G8231, Promega Italia S.r.l., Milan, Italy) were added to each well. After a 10 min incubation, a volume of 100 µL was transferred to a new microplate for luminescence determination as described above. As a general rule, the MBIC value was identified as the concentration at which a reduction of at least a log in the metabolic activity was observed.
This is another data set of the same source.

Data set [5] concerns S. aureus cra2198 (SA 02). The data set is classed as cell-based. The following applies: cra2198 (SA 02).
Text: as §1, §2, §3, §5

In data set [6] the test system is S. epidermidis cra4034 (SE 01). The data set is classed as cell-based. As to conditions: cra4034 (SE 01).
Text: as §1, §2, §3, §5

Data set [7] relates to P. aeruginosa cra4004 (PA 01). In kind it is cell-based.
Text: as §1, §2, §3, §5

In data set [8] the test system is S. aureus cra4030 (SA 01). In kind it is cell-based. As to conditions: cra4030 (SA 01, 24 h).
Text: as §1, §2, §3, §5

In a further data set the test system is E. coli cra4038 (EC). In kind it is cell-based. The following applies: cra4038 (EC).
Text: as §1, §2, §3, §5

The subject of data set [9] is P. aeruginosa cra3840 (PA 02). In kind it is cell-based. As to conditions: cra3840 (PA 02, 24 h).
Text: as §1, §2, §3, §5

For data set [10], the system named is E. faecalis cra4033 (EF 02). In kind it is cell-based.
Text: as §1, §2, §3, §5
The source holds these as a separate data set.

The test system of data set [11] is E. faecalis cra4024 (EF 01). The data set is classed as cell-based.
Text: as §1, §2, §3, §5

Regarding `CC(C)[C@H](NC(=O)[C@H](Cc1c[nH]c2ccccc12)NC(=O)[C@H](Cc1ccccc1)NC(=O)[C@@H](NC(=O)[C@@H](NC(=O)[C@H](CCCCN)NC(=O)[C@@H](N)CCCCN)C(C)C)C(C)C)C(=O)N[C@@H](CCCCN)C(=O)N[C@@H](Cc1ccccc1)C(=O)N[C@@H](CCCCN)C(=O)O` [KSL-W] (H-KKVVFWVKFK-OH), in [1], the “stability to enzymic activity such as trypsin-catalyzed cleavage” value is reported as “greater stability”. Besides, the MIC in [2] was 0.49 to 0.98 µg/mL; in [3], 15.63 to 31.25 µg/mL. The “LR, Log10 reduction in bacterial metabolism for a given MBIC” value was determined as 2 LR in data set [4] (cra4029 (SE 02)); 3 LR in data set [5]; 3 LR in data set [6]; 2 LR in [7]; 3 LR in the data set on E. coli cra4038 (EC); 2 LR in data set [10] (cra4033 (EF 02)). Further, the “LR, Log10 reduction in bacterial metabolism for a given MBIC” value in data set [11] (cra4024 (EF 01)) is recorded as 3 LR. Besides, the MBIC in data set [4] (cra4029 (SE 02, 24 h)) is 0.24 to 0.49 µg/mL; in data set [8], 31.25 µg/mL; in [9], 31.25 µg/mL; in data set [10] (cra4033 (EF 02, 24 h)), 3.91 µg/mL; in data set [11] (cra4024 (EF 01, 24 h)), 3.91 to 7.81 µg/mL.
